Experimental data from US11458138B2 (Novartis AG, priority 2017, dated 2022).

Columns and labels:
LATS1 = LATS1 (Homo sapiens (Human), UniProt O95835); assay: LATS1 biochemical assay (Table 1A, Compound Examples 1-290; method in the earlier part)
[1] = tested on: Phospho-YAP (SER127) in HaCaT cells; assay: pYAP HTRF Assay (HaCaT Cells); format: cell-based, human; conditions: Homo sapiens, 2 hours
Outline: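 Phospho-YAP (Ser127) was measured by HTRF (665 nm/620 nm ratio) in HaCaT cells. Cells were grown 48 hours at 37° C at 5500 cells/well, exposed to compound for 2 hours, and incubated with detection reagents for 20 hrs at room temperature.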

[2] = tested on: Phospho-YAP (Ser127) in JHH-5 cells; assay: pYAP HTRF Assay (JHH-5 cells); format: cell-based; conditions: 2 hours
Description: Briefly, JHH-5 cells are suspended at 0.48×10^6 cells/ml in William's E medium without phenol-red (Thermo Fisher Scientific Gibco catalog number A1217601) supplemented with 10% (v/v) heat-inactivated fetal bovine serum (Thermo Fisher Scientific Gibco catalog number 16140071) and penicillin-streptomycin at 100 U/ml each (Thermo Fisher Scientific Gibco catalog number 15140122). Cells are dispensed into 384well clear bottom culture plates (50 ul/well, at 24000 cells per well, Greiner catalog number 781091), and incubated for 24 hours in a cell culture incubator at 37° C. Test compounds are transferred into culture plates containing JHH-5 cells using an Echo550 (Labcyte) acoustic dispenser (50 nl/well), followed by incubation for 2 hours at 37° C. Lysis buffer (part of CisBio kit catalog number 64YAPPEI) is added to the assay plates as a four-fold concentrate (corresponding to 16 ul/well) and incubated for 30 minutes at room temperature with agitation. Lysate is transferred from culture plates into white low-volume 384well assay plates (12 ul/well, Greiner catalog number 784075), followed by the addition of 3 ul/well of detection antibodies (part of CisBio kit catalog number 64YAPPEI: 1:40 dilution of each pYAP d2 antibody and pYAP cryptate antibody stocks). The plates are sealed and incubated overnight (18 hours) at room temperature protected from light. Plates are read on an EnVision plate reader (Perkin Elmer) at emission wavelengths of 665 nm and 620 nm. The HTRF signal ratio x per well is calculated as [x=Signal(665 nm)/Signal(620 nm)×10000] as specified in the manufacturer's protocol.

[3] = tested on: YAP nuclear translocation in HaCaT cells; assay: YAP Translocation Assay (HaCaT Cells); format: cell-based, human; conditions: Homo sapiens, 24 hours
Outline: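 HaCaT cells (20,000/well) in DMEM + 10% FBS were plated overnight at 37° C, then exposed to compound for 24 h at 37° C. Cells were fixed with PFA, permeabilized with 0.1% Triton/1.5% BSA and imaged by high-content imaging.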

Chain of LATS1 (O95835 whole entry, looked up): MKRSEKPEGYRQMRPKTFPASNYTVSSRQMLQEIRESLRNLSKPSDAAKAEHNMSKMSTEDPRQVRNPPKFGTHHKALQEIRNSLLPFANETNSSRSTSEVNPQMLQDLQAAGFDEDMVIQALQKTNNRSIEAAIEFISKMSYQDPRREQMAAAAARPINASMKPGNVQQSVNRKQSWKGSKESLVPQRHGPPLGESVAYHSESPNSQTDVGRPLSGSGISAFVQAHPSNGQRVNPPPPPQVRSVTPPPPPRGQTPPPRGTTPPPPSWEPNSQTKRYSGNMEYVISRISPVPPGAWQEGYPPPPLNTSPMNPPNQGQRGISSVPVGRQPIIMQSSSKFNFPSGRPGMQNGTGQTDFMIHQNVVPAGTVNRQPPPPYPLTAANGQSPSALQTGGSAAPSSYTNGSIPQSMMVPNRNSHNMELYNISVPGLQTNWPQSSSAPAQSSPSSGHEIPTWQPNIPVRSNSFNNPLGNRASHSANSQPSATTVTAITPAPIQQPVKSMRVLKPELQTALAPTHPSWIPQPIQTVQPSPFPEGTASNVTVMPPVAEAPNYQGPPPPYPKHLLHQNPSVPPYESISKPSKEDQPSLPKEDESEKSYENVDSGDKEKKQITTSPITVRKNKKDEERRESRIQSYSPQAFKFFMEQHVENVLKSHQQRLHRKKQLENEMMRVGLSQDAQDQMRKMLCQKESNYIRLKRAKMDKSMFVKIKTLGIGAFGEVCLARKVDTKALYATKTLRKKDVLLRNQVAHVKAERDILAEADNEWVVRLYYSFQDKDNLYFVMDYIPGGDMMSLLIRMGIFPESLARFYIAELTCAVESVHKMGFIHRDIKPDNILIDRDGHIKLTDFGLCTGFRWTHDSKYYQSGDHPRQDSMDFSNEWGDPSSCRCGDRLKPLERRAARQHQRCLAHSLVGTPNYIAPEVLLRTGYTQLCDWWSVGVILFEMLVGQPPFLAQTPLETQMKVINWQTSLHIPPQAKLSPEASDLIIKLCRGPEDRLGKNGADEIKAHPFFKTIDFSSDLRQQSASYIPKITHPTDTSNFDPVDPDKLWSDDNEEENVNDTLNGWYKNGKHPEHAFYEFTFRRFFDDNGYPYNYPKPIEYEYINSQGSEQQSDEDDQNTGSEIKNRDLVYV
Chain of LATS1 (Q7L9L4 whole entry partner, looked up): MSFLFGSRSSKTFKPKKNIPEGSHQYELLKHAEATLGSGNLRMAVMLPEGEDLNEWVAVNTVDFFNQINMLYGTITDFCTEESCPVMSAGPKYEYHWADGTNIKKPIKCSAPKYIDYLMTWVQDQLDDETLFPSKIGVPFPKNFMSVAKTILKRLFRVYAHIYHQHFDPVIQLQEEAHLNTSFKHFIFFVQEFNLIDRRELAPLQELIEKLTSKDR

IC50 (LATS1) [µM] | IC50 [2] [µM] | SMILES | IC50 [1] [µM] | EC50 [3] [µM]
0.001 | 1 | CC(C)(Nc1nc(-c2ccncc2F)nc2cnccc12)C(F)(F)F [Example 134, 2-(3-fluoropyridin-4-yl)-N-(1,1,1-trifluoro-2-methylpropan-2-yl)pyrido[3,4-d]pyrimidin-4-amine] | 0.539 | 1.19
0.004 | 2.2 | Cc1n[nH]cc1-c1nc(NC(C)(C)CC(C)(C)O)c2ccncc2n1 [Example 140, 2,4-dimethyl-4-{[2-(3-methyl-1H-pyrazol-4-yl)pyrido[3,4-d]pyrimidin-4-yl]amino}pentan-2-ol] | 1.24 | 2.26
0.001 | 2.6 | CCCNc1nc(-c2c[nH]c3ncccc23)nc2cnccc12 [Example 155, N-propyl-2-{1H-pyrrolo[2,3-b]pyridin-3-yl}pyrido[3,4-d]pyrimidin-4-amine] | 1.58 | 1.05
0.006 | 9.2 | Cc1cnccc1-c1nc(NC(C)(C)C(F)(F)F)c2ccncc2n1 [Example 157, 2-(3-methylpyridin-4-yl)-N-(1,1,1-trifluoro-2-methylpropan-2-yl)pyrido[3,4-d]pyrimidin-4-amine] | 4.05 | 3.78
0.004 | 6.5 | Cn1nccc1-c1nc(NC(C)(C)C)c2ccncc2n1 [Example 184, N-tert-butyl-2-(1-methyl-1H-pyrazol-5-yl)pyrido[3,4-d]pyrimidin-4-amine] | 2.51 | 2.81
0.001 | 1.3 | CC1(Nc2nc(-c3ccncc3)nc3c(Cl)nccc23)CC1 [Example 198, 8-chloro-N-(1-methylcyclopropyl)-2-(pyridin-4-yl)pyrido[3,4-d]pyrimidin-4-amine] | 2.18 | 3.23
0.004 | 1.5 | CC(C)(C)Nc1nc(-c2ccncc2)nc2cncc(Cl)c12 [Example 251, N-(tert-butyl)-5-chloro-2-(pyridin-4-yl)pyrido[3,4-d]pyrimidin-4-amine] | 1.96 | 10.9
0.005 | 1.3 | COCCC(C)(C)Nc1cc(-c2ccncc2)nc2cnccc12 [Example 254, N-(4-methoxy-2-methylbutan-2-yl)-2-(pyridin-4-yl)-1,7-naphthyridin-4-amine] | 2.91 | 4.63
0.008 | 7.1 | CC(C)OCC(C)(C)Nc1cc(-c2ccncc2)nc2cnccc12 [Example 255, N-[2-methyl-1-(propan-2-yloxy)propan-2-yl]-2-(pyridin-4-yl)-1,7-naphthyridin-4-amine] | 3.18 | 5.39
0.008 | > 10 | CC[C@H](C)Nc1cc(-c2ccncc2)nc2cnccc12 [Example 256, N-[(2S)-butan-2-yl]-2-(pyridin-4-yl)-1,7-naphthyridin-4-amine] | 11.1 | 15.6
0.007 | > 10 | CC(C)(O)CC(C)(C)Nc1cc(-c2ccncc2)nc2cnccc12 [Example 263, 2,4-dimethyl-4-{[2-(pyridin-4-yl)-1,7-naphthyridin-4-yl]amino}pentan-2-ol] | 3.22 | 5.99
0.008 | > 10 | CN(C)CCC(C)(C)Nc1cc(-c2ccncc2)nc2cnccc12 [Example 265, dimethyl(3-methyl-3-{[2-(pyridin-4-yl)-1,7-naphthyridin-4-yl]amino}butyl)amine] | 22.3 | > 20
0.013 | 5.9 | CC(C)(O)COCC(C)(C)Nc1cc(-c2ccncc2)nc2cnccc12 [Example 267, 2-methyl-1-(2-methyl-2-{[2-(pyridin-4-yl)-1,7-naphthyridin-4-yl]amino}propoxy)propan-2-ol] | 7.19 | 9.75
0.001 | 0.8 | Cc1n[nH]cc1-c1cc(NC(C)(C)C)c2ccncc2n1 [Example 269, N-tert-butyl-2-(3-methyl-1H-pyrazol-4-yl)-1,7-naphthyridin-4-amine] | 0.294 | 0.438
0.002 | 0.8 | CC(C)(C)Nc1cc(-c2ccnc(N)n2)nc2cnccc12 [Example 271, 2-(2-aminopyrimidin-4-yl)-N-tert-butyl-1,7-naphthyridin-4-amine] | 0.187 | 1.07
0.002 | 8.1 | CC(C)(C)Nc1cc(-c2ccnc3[nH]ccc23)nc2cnccc12 [Example 272, N-tert-butyl-2-{1H-pyrrolo[2,3-b]pyridin-4-yl}-1,7-naphthyridin-4-amine] | 3.51 | 5.97
0.463 | > 10 | CC(C)(C)Nc1cc(-c2ccnnc2)nc2cnccc12 [Example 273, N-tert-butyl-2-(pyridazin-4-yl)-1,7-naphthyridin-4-amine] | > 100 | > 20
0.004 | 5.9 | CCC(C)(C)Nc1cc(-c2ccncc2F)nc2cnccc12 [Example 281, 2-(3-fluoropyridin-4-yl)-N-(2-methylbutan-2-yl)-1,7-naphthyridin-4-amine] | 0.656 | 2.89

SMILES | IC50 (LATS1) [µM] | IC50 [2] [µM] | IC50 [1] [µM] | EC50 [3] [µM]
C[C@H](N(C)c1nc(-c2ccncc2F)nc2cnccc12)C(F)(F)F [Example 136, 2-(3-fluoropyridin-4-yl)-N-methyl-N-[(2S)-1,1,1-trifluoropropan-2-yl]pyrido[3,4-d]pyrimidin-4-amine] | 0.002 | 1.3 | 1.14 | 2.96
CC(C)(C)Nc1cc(-c2ccncn2)nc2cnccc12 [Example 270, N-tert-butyl-2-(pyrimidin-4-yl)-1,7-naphthyridin-4-amine] | 0.002 | 0.8 | 0.423 | 0.873
CC(C)(C)Nc1cc(-c2ccncc2F)nc2cnccc12 [Example 280, N-tert-butyl-2-(3-fluoropyridin-4-yl)-1,7-naphthyridin-4-amine] | 0.003 | 3.8 | 0.476 | 2.73
